{
  "source": "patent US4247535A",
  "about": "“Modified cyclodextrin sulfate salts as complement inhibitors” (American Cyanamid Company, priority 1979, dated 1981)",
  "key": {"complement system": {"tested_on": "complement system", "details": "reported, British Journal of Experimental Pathology, 33, 327-339 (1952); cited from earlier work"}, "activated human C1": {"target": "activated human C1 (Homo sapiens, UniProt P09871)", "sequence (P09871 16-688)": "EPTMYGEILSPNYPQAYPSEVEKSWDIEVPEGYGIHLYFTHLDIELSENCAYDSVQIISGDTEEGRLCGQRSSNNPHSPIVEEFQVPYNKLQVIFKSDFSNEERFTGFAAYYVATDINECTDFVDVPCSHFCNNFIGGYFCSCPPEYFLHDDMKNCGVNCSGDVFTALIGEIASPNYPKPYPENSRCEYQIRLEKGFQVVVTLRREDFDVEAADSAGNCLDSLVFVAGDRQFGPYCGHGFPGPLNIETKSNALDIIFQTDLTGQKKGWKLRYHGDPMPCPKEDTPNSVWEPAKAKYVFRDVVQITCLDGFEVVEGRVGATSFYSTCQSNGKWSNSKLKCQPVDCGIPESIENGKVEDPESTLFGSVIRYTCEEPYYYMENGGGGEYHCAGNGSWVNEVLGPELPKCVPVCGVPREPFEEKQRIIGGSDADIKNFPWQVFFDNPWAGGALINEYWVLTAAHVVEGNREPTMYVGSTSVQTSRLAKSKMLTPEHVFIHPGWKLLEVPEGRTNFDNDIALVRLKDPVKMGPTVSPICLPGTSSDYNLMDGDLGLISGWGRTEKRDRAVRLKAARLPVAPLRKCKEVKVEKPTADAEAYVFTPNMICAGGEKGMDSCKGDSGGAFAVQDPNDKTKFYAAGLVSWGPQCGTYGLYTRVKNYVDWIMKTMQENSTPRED", "sequence (P00736 18-705 partner)": "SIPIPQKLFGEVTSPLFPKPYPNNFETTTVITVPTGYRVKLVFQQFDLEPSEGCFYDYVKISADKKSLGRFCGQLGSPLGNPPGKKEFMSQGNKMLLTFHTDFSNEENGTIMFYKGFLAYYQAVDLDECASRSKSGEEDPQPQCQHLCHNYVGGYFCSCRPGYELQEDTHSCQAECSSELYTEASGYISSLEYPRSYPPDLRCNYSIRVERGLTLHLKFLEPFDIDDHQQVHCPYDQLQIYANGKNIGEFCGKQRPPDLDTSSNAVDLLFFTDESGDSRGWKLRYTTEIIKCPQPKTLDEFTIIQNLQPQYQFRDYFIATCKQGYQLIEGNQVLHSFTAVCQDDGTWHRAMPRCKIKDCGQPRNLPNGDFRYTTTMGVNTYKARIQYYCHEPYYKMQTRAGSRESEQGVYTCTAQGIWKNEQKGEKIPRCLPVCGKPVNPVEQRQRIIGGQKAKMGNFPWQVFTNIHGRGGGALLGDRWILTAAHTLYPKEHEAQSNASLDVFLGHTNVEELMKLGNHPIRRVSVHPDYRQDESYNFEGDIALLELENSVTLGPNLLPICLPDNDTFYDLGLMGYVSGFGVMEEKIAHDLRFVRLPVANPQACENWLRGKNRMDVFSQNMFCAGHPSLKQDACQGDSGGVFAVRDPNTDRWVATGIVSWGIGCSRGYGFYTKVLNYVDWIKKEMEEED", "sequence (P02745 23-245 partner)": "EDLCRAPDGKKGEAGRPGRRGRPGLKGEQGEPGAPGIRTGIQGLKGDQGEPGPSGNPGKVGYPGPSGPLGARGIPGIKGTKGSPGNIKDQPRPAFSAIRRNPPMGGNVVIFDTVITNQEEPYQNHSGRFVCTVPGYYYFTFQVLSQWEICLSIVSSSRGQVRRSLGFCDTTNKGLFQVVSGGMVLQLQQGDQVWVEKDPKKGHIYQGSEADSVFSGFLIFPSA", "sequence (P02746 28-253 partner)": "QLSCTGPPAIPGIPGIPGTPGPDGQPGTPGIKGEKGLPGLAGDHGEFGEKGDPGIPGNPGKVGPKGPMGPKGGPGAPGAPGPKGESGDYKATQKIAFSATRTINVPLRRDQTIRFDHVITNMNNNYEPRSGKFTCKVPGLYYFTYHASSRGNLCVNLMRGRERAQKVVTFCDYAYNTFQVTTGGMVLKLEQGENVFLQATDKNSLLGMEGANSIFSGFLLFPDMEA", "sequence (P02747 29-245 partner)": "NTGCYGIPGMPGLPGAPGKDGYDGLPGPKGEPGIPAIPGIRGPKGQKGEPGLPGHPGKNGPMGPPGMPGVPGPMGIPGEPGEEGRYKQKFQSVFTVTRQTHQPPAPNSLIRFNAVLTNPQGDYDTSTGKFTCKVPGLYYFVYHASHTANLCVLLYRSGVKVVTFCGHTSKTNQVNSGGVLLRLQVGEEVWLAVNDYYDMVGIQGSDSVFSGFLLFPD", "assay": "Test Code 026 (C1 inhibitor)", "type": "biochemical", "details": "activity in wells, twofold serial dilution assay; higher well number = higher activity", "from_the_text": "(§1) An active inhibitor protects C2 from C1 and C4; (ii) Test Code 035 (C3-C9 inhibitor)--This test determines the ability of the late components of human complement (C3-C9) to lyse EAC 142 in the presence of appropriate dilutions of the test compound. An active inhibitor protects EAC 142 from lysis by human C3-C9; (iii) Test Code 036 (C-Shunt inhibitor)--In this test human erythrocytes rendered fragile are lysed in autologous serum via the shunt pathway activated by cobra venom factor in the presence of appropriate dilutions of the test compound. Inhibition of the shunt pathway results in failure of lysis; (iv) Forssman Vasculitis Test--Here, the well known complement dependent lesion, Forssman vasculitis, is produced in guinea pigs by intradermal injection of rabbit anti-Forssman antiserum. […]"}, "whole complement": {"tested_on": "whole complement", "assay": "Complement Level Reduction Test (in vivo, capillary tube assay of serum)", "details": "200 mg/kg i.v. or i.p.", "from_the_text": "An active inhibitor protects C2 from C1 and C4; (ii) Test Code 035 (C3-C9 inhibitor)--This test determines the ability of the late components of human complement (C3-C9) to lyse EAC 142 in the presence of appropriate dilutions of the test compound. An active inhibitor protects EAC 142 from lysis by human C3-C9; (iii) Test Code 036 (C-Shunt inhibitor)--In this test human erythrocytes rendered fragile are lysed in autologous serum via the shunt pathway activated by cobra venom factor in the presence of appropriate dilutions of the test compound. Inhibition of the shunt pathway results in failure of lysis; (iv) Forssman Vasculitis Test--Here, the well known complement dependent lesion, Forssman vasculitis, is produced in guinea pigs by intradermal injection of rabbit anti-Forssman antiserum. The lesion is measured in terms of diameter, edema and hemorrhage and the extent to which a combined index of these is inhibited by prior intraperitoneal injection of the test compound at 200 mg/kg is then reported, unless otherwise stated; (v) Forssman Shock Test--Lethal shock is produced in guinea pigs by an i.v. injection of anti-Forssman antiserum and the harmonic mean death time of treated guinea pigs is compared with that of simultaneous controls; (vi) Complement Level Reduction Test--In this test, the above dosed guinea pigs, or others, are bled for serum and the complement level is determined in undiluted serum by the capillary tube method of U.S. Pat. No. 3,876,376 and compared to undosed control guinea pigs; and (vii) Cap 50 Test--Here, appropriate amounts of the test compound are added to a pool of guinea pig serum in vitro, after which the undiluted serum capillary tube assay referred to above is run. The concentration of compound inhibiting 50% is reported.\nWith reference to Table I, guinea pigs weighing about 300 g were dosed intravenously (i.v.) or intraperitoneally (i.p.) with 200 mg/kg of the test compound dissolved in saline and adjusted to pH 7-8. […] Percent inhibition was calculated by comparison with simultaneous controls. […]"}, "shunt pathway": {"tested_on": "shunt pathway", "assay": "Test Code 036 (C-Shunt inhibitor), lysis of fragile human erythrocytes in autologous serum, cobra venom factor", "type": "cell-based", "details": "activity in wells, twofold serial dilution assay; higher well number = higher activity", "from_the_text": "as §1"}, "[1]": {"tested_on": "late components of human complement (C3-C9)", "assay": "Test Code 035 (C3-C9 inhibitor), lysis of EAC 142", "type": "biochemical", "details": "activity in wells, twofold serial dilution assay; higher well number = higher activity", "from_the_text": "as §1"}, "[2]": {"tested_on": "hereditary angioneurotic edema", "details": "reported in the literature; cited from earlier work"}, "human serum": {"tested_on": "human serum", "details": "both in vitro and in vivo, judged by reduction in total hemolytic complement activity; cited from earlier work"}},
  "note": "Structures can show the parent of a compound that is named as a salt.",
  "data": [
    {"compound": "Nc1ccc2cc(S(=O)(=O)O)cc(O)c2c1N=Nc1ccc(NC(=O)Nc2ccc(N=Nc3c(N)ccc4cc(S(=O)(=O)O)cc(O)c34)c(S(=O)(=O)O)c2)cc1S(=O)(=O)O", "note": "[chlorazol fast pink, 3,3'-ureylenebis-[6-(2-amino-8-hydroxy-6-sulfo-1-naphthylazo)]benzenesulfonic acid, tetrasodium salt]", "values": [
      {"measurement": "anticomplementary effect", "setting": "complement system", "value": "anticomplementary effect"}
    ]},
    {"compound": "O=C(O)[C@H]1O[C@@H]2O[C@H]3[C@H](OS(=O)(=O)O)[C@@H](OS(=O)(=O)O)[C@@H](O[C@H]4[C@H](OS(=O)(=O)O)[C@@H](OS(=O)(=O)O)[C@@H](O[C@H]5[C@H](OS(=O)(=O)O)[C@@H](OS(=O)(=O)O)[C@@H](O[C@H]6[C@H](OS(=O)(=O)O)[C@@H](OS(=O)(=O)O)[C@@H](O[C@H]7[C@H](OS(=O)(=O)O)[C@@H](OS(=O)(=O)O)[C@@H](O[C@H]8[C@H](OS(=O)(=O)O)[C@@H](OS(=O)(=O)O)[C@@H](O[C@H]1[C@H](OS(=O)(=O)O)[C@H]2OS(=O)(=O)O)O[C@@H]8C(=O)O)O[C@@H]7C(=O)O)O[C@@H]6C(=O)O)O[C@@H]5C(=O)O)O[C@@H]4C(=O)O)O[C@@H]3C(=O)O", "note": "[5,5',5\",5'\",5\"\",5'\"\",5\"\"\"-Heptacarboxy-6,6',6\",6'\",6\"\",6'\"\",6\"\"\"-heptademethyl-β-cyclodextrin, heptasodium salt, tetradecakis (H-sulfate), tetradecasodium salt]", "values": [
      {"measurement": "026 In Vitro Activity", "setting": "activated human C1", "value": "+7 wells"},
      {"measurement": "In Vivo Activity (Guinea Pig) % Inhibition 30 min.", "setting": "whole complement; 30 min.", "value": -18, "unit": "%"},
      {"measurement": "In Vivo Activity (Guinea Pig) % Inhibition 60 min.", "setting": "whole complement; 60 min.", "value": "+14%"},
      {"measurement": "In Vivo Activity (Guinea Pig) % Inhibition 120 min.", "setting": "whole complement; 120 min.", "value": -40, "unit": "%"},
      {"measurement": "036 In Vitro Activity", "setting": "shunt pathway", "value": "+3 wells"},
      {"measurement": "035 In Vitro Activity", "setting": "[1]", "value": "+1 wells"}
    ]},
    {"compound": "O=C(O)[C@H]1O[C@@H]2O[C@H]3[C@H](O)[C@@H](O)[C@@H](O[C@H]4[C@H](O)[C@@H](O)[C@@H](O[C@H]5[C@H](O)[C@@H](O)[C@@H](O[C@H]6[C@H](O)[C@@H](O)[C@@H](O[C@H]7[C@H](O)[C@@H](O)[C@@H](O[C@H]8[C@H](O)[C@@H](O)[C@@H](O[C@H]1[C@H](O)[C@H]2O)O[C@@H]8C(=O)O)O[C@@H]7C(=O)O)O[C@@H]6C(=O)O)O[C@@H]5C(=O)O)O[C@@H]4C(=O)O)O[C@@H]3C(=O)O", "note": "[5,5',5\",5'\",5\"\",5'\"\",5\"\"\"-Heptacarboxy-6,6',6\",6'\",6\"\",6'\"\",] [5,5',5\",5'\",5\"\",5'\"\",5\"\"\"-Heptacarboxy-6,6',6\",6'\",6\"\",6'\"\",6\"\"\"-heptademethyl-β-cyclodextrin]", "values": [
      {"measurement": "035 In Vitro Activity", "setting": "[1]", "value": "N"}
    ]},
    {"compound": "NC[C@H]1CC[C@H](C(=O)O)CC1", "note": "[tranexamic acid]", "values": [
      {"measurement": "treatment of hereditary angioneurotic edema", "setting": "[2]", "value": "used with success"}
    ]},
    {"compound": "heparin", "values": [
      {"measurement": "anticomplementary effect", "setting": "complement system", "value": "anticomplementary effect"}
    ]},
    {"compound": "NCCCCCC(=O)O", "note": "[epsilon-aminocaproic acid]", "values": [
      {"measurement": "treatment of hereditary angioneurotic edema", "setting": "[2]", "value": "used with success"}
    ]},
    {"compound": "pentosan-polysulfoester", "values": [
      {"measurement": "anticomplementary activity on human serum", "setting": "human serum", "value": "anticomplementary activity"}
    ]}
  ]
}
